Laboratory results reported in publication PMC5641094, “A peptide antagonist of Prep1-p160 interaction improves ceramide-induced insulin resistance in skeletal muscle cells” (Oncotarget, 2017).

Legend:
Prep1/p160 complex = target: T1, Prep1/p160 complex (Rattus norvegicus, UniProt O35821); test: Prep1-p160 co-immunoprecipitation in L6 cells; format: cell-based
T1 construct: endogenous in cells; host or cells: L6 rat skeletal muscle cells
T1 sequence (O35821 1-1344): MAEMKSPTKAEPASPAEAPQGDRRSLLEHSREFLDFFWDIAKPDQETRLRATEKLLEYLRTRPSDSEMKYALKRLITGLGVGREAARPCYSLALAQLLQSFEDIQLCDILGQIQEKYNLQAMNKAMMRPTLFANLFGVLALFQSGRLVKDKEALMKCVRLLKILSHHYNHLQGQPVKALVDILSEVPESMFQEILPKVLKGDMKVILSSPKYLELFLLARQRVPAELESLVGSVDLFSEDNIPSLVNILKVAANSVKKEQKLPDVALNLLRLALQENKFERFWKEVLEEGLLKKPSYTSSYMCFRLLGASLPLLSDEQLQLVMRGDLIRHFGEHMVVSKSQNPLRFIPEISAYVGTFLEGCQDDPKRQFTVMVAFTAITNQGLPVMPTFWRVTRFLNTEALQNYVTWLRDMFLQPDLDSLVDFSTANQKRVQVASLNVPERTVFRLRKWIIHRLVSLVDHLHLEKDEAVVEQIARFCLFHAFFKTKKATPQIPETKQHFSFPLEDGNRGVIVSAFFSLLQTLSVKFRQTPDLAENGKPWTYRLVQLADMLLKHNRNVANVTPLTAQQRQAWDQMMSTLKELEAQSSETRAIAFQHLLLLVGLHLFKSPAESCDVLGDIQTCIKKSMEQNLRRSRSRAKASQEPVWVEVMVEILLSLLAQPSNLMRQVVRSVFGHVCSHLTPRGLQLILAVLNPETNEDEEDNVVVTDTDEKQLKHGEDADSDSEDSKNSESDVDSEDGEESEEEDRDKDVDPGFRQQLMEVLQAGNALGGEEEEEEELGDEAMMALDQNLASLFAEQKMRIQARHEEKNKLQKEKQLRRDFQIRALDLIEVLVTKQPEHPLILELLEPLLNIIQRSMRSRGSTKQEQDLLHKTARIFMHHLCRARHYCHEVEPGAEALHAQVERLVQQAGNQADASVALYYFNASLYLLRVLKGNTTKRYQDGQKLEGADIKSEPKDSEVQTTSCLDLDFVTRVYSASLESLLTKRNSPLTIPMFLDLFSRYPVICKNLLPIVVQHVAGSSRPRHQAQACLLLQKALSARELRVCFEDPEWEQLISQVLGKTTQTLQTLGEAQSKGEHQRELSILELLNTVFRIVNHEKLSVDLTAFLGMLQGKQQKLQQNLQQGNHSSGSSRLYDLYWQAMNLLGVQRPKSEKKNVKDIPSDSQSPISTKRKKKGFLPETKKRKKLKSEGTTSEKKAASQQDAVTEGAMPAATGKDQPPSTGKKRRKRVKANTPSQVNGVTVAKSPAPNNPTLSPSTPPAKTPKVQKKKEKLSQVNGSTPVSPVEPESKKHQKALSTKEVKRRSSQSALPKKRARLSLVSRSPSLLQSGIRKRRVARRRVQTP
Description: Figure 2 Effect of ceramides on Prep1 and p160 mRNA expression and of Prep1-p160 coprecipitation L6 cells were treated with C2cer (10μM) for 18h and Prep1 (A) or p160 (B) mRNA levels were analyzed by real-time RT-PCR analysis. Data were normalized by the amount of GAPDH mRNA, used as internal control. Bars represent the mean ± SD of three independent experiments, each performed in triplicate. (C) L6 cells were treated with cycloheximide (CHX) at 40μg/mL concentration for 18h and the lysates were analyzed by Western blot with anti-p160 and beta-actin. The autoradiograph shown is representative of three different experiments and subjected to densitometric analysis. […]
Figure 3 Design and in vitro effects of Prep1(54-72) peptide on Prep1/p160 association (A) Binding curves of Prep1(59-72) and Prep1(54-72) peptides to p160_20-160 by ELISA-like assays. […] (C) L6 cells were incubated with increasing concentrations of the fluorescein-conjugated peptide (FITC-Prep1(54-72)) and peptide uptake was detected by FACS analysis of fluorescein-labeled cells. […] Protein lysates were immunoprecipitated with Prep1 antibodies and analyzed by Western blot using antibodies for p160 or for Prep1. […] The blots were detected by ECL and autoradiography. […]
Total cell lysates were obtained and separated by SDS-PAGE. […] The protein concentrations in the cell lysates were measured using a Bio-Rad DC (detergent compatible) assay. […]

[1] = tested on: IRS1 tyrosine phosphorylation; test: IRS1 tyrosine phosphorylation, immunoprecipitation and Western blot; format: cell-based, rat; settings: insulin 100nM; for effect on insulin-stimulated IRS1 tyrosine phosphorylation: L6 cells, C2cer 10μM 18h, with or without Prep1(54-72)
Description: Figure 4 Prep1(54-72) peptide restores the insulin signaling inhibited by C2cer and Prep1 L6 cells were stimulated with insulin (100nM) and incubated with Prep1(54-72) in presence of C2cer at 10μM for 18h (A-B) or stable transfection of Prep1 (C-D). Protein lysates were immunoprecipitated with specific IR or IRS1 antibodies and analyzed by Western blot using antibodies for phosphotyrosines (pY) and beta-actin as loading control. Blots were detected by ECL and autoradiography. The autoradiographs are representative of three independent experiments. Asterisks denote statistically significant differences (*p<0.05; **p<0.01).
Total cell lysates were obtained and separated by SDS-PAGE. Briefly, cells were solubilized with lysis buffer containing 50mM HEPES, 150mM NaCl, 10mM EDTA, 10mM Na4P2O7, 2mM sodium orthovanadate, 50mM NaF, 1mM phenylmethylsulfonyl fluoride, 10μg/ml aprotinin, 10μg/ml leupeptin, pH 7.4, and 1% (v/v) Triton X-100. Lysates were clarified by centrifugation at 12,000g for 20 minutes at 4°C. The protein concentrations in the cell lysates were measured using a Bio-Rad DC (detergent compatible) assay. Immunoprecipitation and Western blot analysis have been performed as previously described.

CCCCCCCCCCCCC/C=C/[C@@H](O)[C@H](CO)NC(C)=O [C2cer, D-erythro-Sphingosine, N-Acetyl-, reference compound]
induction of Prep1-p160 association (Prep1/p160 complex; C2cer): 80%
effect on insulin-stimulated IRS1 tyrosine phosphorylation [1]: blocked

Ac-KQAIYRHPLFPLLALLFEK-NH2 [Prep1(54-72)]
effect on ceramide-stimulated Prep1-p160 co-precipitation (Prep1/p160 complex; C2cer 10μM 18h, incubated with Prep1(54-72)): almost completely reverted
effect on insulin-stimulated IRS1 tyrosine phosphorylation [1]: restored
IRS1 tyrosine phosphorylation in Prep1 overexpressing cells ([1]; Prep1L6 cells (stably transfected with Prep1 cDNA), incubated with Prep1(54-72)): stimulated similarly to the control cells
